Key:
[1] = system: Bone marrow derived mast cells (BMMC); assay: Cell death assay (Trypan blue exclusion) in BMMC; format: cell-based; details: for cell death: 24 hours
Protocol: Cytotoxicity assays were performed as described in Materials and Methods. In Figures 1A to 1C, BMMCs were incubated with either SLF (500ng/ml in all cases) (circles) or IL-3 (25% WEHI-3 conditioned medium in all cases) (squares) with the indicated amounts of ketotifen (Figure 1A), econazole (Figure 1B) or Ni^2+ (Figure 1C). In Figure 1D, BMMCs were incubated with IL-3, and the indicated amounts of SLF. Plotted circles also included 2.5mM Ni^2+ and plotted squares included no Ni^2+. In Figure 1E, BMMCs were coated with IgE anti-DNP monoclonal SPE-7, then incubated with IL-3 plus the indicated amounts of DNP-HSA (Ag), with 5µM econazole (circles) or without econazole (squares). In Figure 1F, BMMCs were incubated with IL-3 plus the indicated amounts of Substance P, with 5µM econazole (circles) or without econazole (squares). In all cases, the proportion of dead cells was determined after 24 hours in culture by counting cells that could or could not exclude Trypan blue. Error bars represent the standard error determined from triplicate measurements.
(§1) Cells. Bone marrow derived mast cells (BMMC) were generated as described previously (Berger et al., 1994). They were cultured in OPTI-MEM (Gibco, Burlington, ON) supplemented with 10% heat-inactivated FBS and 2% WEHI-3 supernatant as a source of IL-3. 32D-kit cells (gift from Dr. Mark Minden, Ontario Cancer Institute) are an IL-3-dependent myelomonocytic cell line expressing c-kit (Hu et al., 1995). 32D-kit cells were grown in RPMI (Gibco) supplemented with 10% heat-inactivated FBS, 2% WEHI-3 supematant, and 1 mg/ml G418 (Gibco). The p815 cell line is a murine mastocytoma cell line. P815 cells were grown in RPMI supplemented with 10% heat-inactivated FBS. Bcl-2 gp+e NIH 3T3 packaging cells were grown in Dulbecco's modified Eagle's medium (DMEM - Gibco) and supplemented with 10% FBS and 2 µg/ml puromycin (Sigma, St. Louis, Mo). All cell cultures also contained 55µM β-mercaptoethanol and antibiotics (both Sigma). SK-BR3, MDA-MB231 and MCF-7 cells were obtained from ATCC. SK-BR3 and MDA-MB231 cells were cultured in RPMI medium supplemented with 10% heat inactivated fetal bovine serum. MCF-7 cells were cultured in DMEM medium supplemented with 10% heat inactivated fetal bovine serum and 10 µg/ml human insulin (Sigma).
(§2) Cell death assays. 2.5 X 10^4 BMMCs, 32D-kit or P815 cells were placed in 96-well flat bottom plates in a volume of 0.1 ml RPMI containing 0.5% FBS. Cells were supplemented with either SLF, Substance P or IL3 plus Ca^2+ channel blocker. In the case of adding IgE, cells were incubated with 10 µg/ml SPE-7 for 45 minutes at 4°C followed by 3 washes with RPMI, 0.5% FBS before plating in 96 well plates and adding 100 ng/ml DNP-HSA. The proportion of dead cells was determined after 18 or 24 hours in culture by counting cells that could or could not exclude Trypan blue.

32D-kit-Bcl-2 cells = assay: Cell death assay (Trypan blue exclusion) in Bcl-2 over-expressing 32D-kit cells; format: cell-based; details: SLF plus 2.5, 5 or 10µM econazole; 18 hours; Figure 7B
Protocol: Figures 6A and 6B show the effect of ionomycin on apoptosis induced by SLF and Ca^2+ influx blacker. In Figure 6A, 32D-kit cells were incubated for 18 hours with 5µM econazole and the indicated amounts of ionomycin in the presence of either SLF (circles) or IL-3 (squares). In Figure 6B, 32D-kit-Bcl-2 cells were incubated for 18 hours with 5µM econazole and the indicated amounts of ionomycin in the presence of either SLF (circles) or IL-3 (squares). The proportion of dead cells was determined by Trypan Blue exclusion.
In additional cultures, IL-3 alone or no factor was added and cell viability was similarly tested. The effect on cell viability of adding 25 or 250 µM YVAD-CHO was also evaluated in separate cultures in which no additional factors were added.
Generation of Bcl-2 over-expressing 32D-kit cells. gp + e bcl-2 retroviral producer cells were a gift from Dr. Y. Ben-David (Toronto) and contain an LXSN-based retroviral vector expressing genes for both puromycin resistance and murine bcl-2. For infection, a confluent layer of gp + e packaging cells were co-cultured with 32D-kit cells for 24 hours. Non-adherent 32D-kit cells were then removed, cultured for 48 hours and then selected for bcl-2 over-expressing cells in the presence of 2µg/ml puromycin.
as §2

BMMC = assay: Analysis of DNA content (propidium iodide, flow cytometry) in BMMC; format: cell-based; details: 24 hours
Protocol: Analysis of DNA content. 1.25 X 10^6 cells were incubated for 18 or 24 hours as described above. Cells were spun down and resuspended in Vindelov's reagent: 3.4mM Tris - pH 8, 75 µM Propidium Iodide (from Sigma), 0.1% NP-40, 700 u/l RNAse (Sigma) and 10 mM NaCl. Cells were then analysed by flow cytometry.

SK-BR3 cells = assay: Cell death (Trypan blue exclusion) in SK-BR3 breast cancer cells; format: cell-based, human; details: with or without 10ng/ml EGF; 18 hours; Figure 9A
Protocol: as §1

MDA-MB-231 cells = assay: Cell death in autocrine stimulated MDA-MB-231 breast cancer cells; format: cell-based, human; details: 20µM econazole; Figure 9B
Protocol: Bar 1: control; Bar 2: 20µM econazole; Bar 3: 20µM econazole and 10µM YVAD-CHO (ICE inhibitor); Bar 4: 20µM econazole and 100 µM YVAD-CHO; Bar 5: 20µM econazole and 0.1 nM ionomycin (calcium ionophore); Bar 6: 20µM econazole and 10 nM ionomycin; Bar 7: 20µM econazole and 1 µM ionomycin; Bar 8: 20µM econazole and 10 µM oleic acid (PLC activation inhibitor); and Bar 9: 20µM econazole and 100 µM oleic acid.
as §1
The MDA-MB-231 cell line is a highly anaplastic carcinoma of the breast. it too is tumorigenic in nude mice but expresses only low levels of erbB2. However it is FGF^R positive and is stimulated in an autocrine fashion by bFGF (el Yazidi et al., 1995). Experiments were carried out to determine the susceptibility of MDA-MB-231 cells to a Ca^2+ influx blocker and the influence of oleic acid, ionomycin, and YVAD-CHO on induction of cell death by the blocker. The results are summarized together in Figure 9B.

MCF-7 cells = assay: Cell death (Trypan blue exclusion) in MCF-7 cells; format: cell-based, human; details: with versus without 10ng/ml EGF; 18 hours; Figure 10
Protocol: 2.5 X 10^4 MCF-7 cells were incubated in the wells of a 96-well plate in 0.1ml DMEM plus 0.5% FBS with (circles) or without (squares) 10ng/ml EGF and with the concentrations of econazole indicated for 18 hours. The proportion of dead cells was evaluated by Trypan Blue exclusion after 18 hours in culture.
as §1, with “MCF-7 cells were cultured in DMEM medium supplemented with 10% heat inactivated fetal bovine serum and 10 µg/ml human insulin (Sigma).” left out

NS1/Ag4 myeloma cells = details: at 1µg/ml; cited from earlier work

**Q.** With Clc1ccc(COC(Cn2ccnc2)c2ccc(Cl)cc2Cl)cc1 (centres unmarked) [econazole] as the molecule, how does the cell death ([1]; co-incubated with SLF (500ng/ml), Figures 1A-C) read?
**A.** Its cell death is “converted to a death signal”.

**Q.** What about the cell viability ([1]; econazole alone, without antigenic stimulation) of the same molecule?
**A.** Its cell viability is “no effect on cell viability”.

**Q.** And the cell death ([1]; stimulated with IgE plus antigen (DNP-HSA), with IL-3, 5µM econazole in Figure 1E)?
**A.** The cell death was “cell death is induced”.

**Q.** What about the cell death ([1]; stimulated with Substance P, IL-3, 5µM econazole) of the same molecule?
**A.** The cell death was “cell death is also induced”.

**Q.** And the “protection by Bcl-2 overexpression from induction of apoptosis” value (32D-kit-Bcl-2 cells)?
**A.** The value was “fails to protect”.

**Q.** And the “Sub G1 Content (%) 8µM econazole” value (BMMC; 8µM econazole plus IL-3 (25% WEHI conditioned media))?
**A.** The value was 20.4%.

**Q.** What about the “Sub G1 Content (%) 8µM econazole” value (BMMC; 8µM econazole plus SLF (500ng/m.)) of the same molecule?
**A.** Its value is 66.8%.

**Q.** What about the cell death (SK-BR3 cells) of the same molecule?
**A.** The cell death was “equivalent levels of death”.

**Q.** And the apoptosis (MDA-MB-231 cells)?
**A.** Its apoptosis is “undergo apoptosis”.

**Q.** What about the “sensitivity to cell death” value (MCF-7 cells) of the same molecule?
**A.** The value was “more sensitive”.

**Q.** What about the “cell viability and cell numbers” value (NS1/Ag4 myeloma cells) of the same molecule?
**A.** Its value is “reduce cell viability and cell numbers”.
